Values after ≈ are worked out from the molar mass of the structure shown.
Experiments:
B. subtilis pol IIIC = biological target: T1, B. subtilis pol IIIC (Bacillus subtilis, UniProt P13267); test: DNA polymerase assay, B. subtilis pol IIIC; format: biochemical; conditions: for Percent Enzymatic Inhibition B. subtilis pol IIIC / inhibition at 80 µg/mL: 80 μg/mL (190-260 μM) final concentration, all four dNTPs; for inhibition at 80 µg/mL: read-out: Percent Enzymatic Inhibition B. subtilis pol IIIC
T1 construct: made in house
T1 sequence (P13267 whole entry): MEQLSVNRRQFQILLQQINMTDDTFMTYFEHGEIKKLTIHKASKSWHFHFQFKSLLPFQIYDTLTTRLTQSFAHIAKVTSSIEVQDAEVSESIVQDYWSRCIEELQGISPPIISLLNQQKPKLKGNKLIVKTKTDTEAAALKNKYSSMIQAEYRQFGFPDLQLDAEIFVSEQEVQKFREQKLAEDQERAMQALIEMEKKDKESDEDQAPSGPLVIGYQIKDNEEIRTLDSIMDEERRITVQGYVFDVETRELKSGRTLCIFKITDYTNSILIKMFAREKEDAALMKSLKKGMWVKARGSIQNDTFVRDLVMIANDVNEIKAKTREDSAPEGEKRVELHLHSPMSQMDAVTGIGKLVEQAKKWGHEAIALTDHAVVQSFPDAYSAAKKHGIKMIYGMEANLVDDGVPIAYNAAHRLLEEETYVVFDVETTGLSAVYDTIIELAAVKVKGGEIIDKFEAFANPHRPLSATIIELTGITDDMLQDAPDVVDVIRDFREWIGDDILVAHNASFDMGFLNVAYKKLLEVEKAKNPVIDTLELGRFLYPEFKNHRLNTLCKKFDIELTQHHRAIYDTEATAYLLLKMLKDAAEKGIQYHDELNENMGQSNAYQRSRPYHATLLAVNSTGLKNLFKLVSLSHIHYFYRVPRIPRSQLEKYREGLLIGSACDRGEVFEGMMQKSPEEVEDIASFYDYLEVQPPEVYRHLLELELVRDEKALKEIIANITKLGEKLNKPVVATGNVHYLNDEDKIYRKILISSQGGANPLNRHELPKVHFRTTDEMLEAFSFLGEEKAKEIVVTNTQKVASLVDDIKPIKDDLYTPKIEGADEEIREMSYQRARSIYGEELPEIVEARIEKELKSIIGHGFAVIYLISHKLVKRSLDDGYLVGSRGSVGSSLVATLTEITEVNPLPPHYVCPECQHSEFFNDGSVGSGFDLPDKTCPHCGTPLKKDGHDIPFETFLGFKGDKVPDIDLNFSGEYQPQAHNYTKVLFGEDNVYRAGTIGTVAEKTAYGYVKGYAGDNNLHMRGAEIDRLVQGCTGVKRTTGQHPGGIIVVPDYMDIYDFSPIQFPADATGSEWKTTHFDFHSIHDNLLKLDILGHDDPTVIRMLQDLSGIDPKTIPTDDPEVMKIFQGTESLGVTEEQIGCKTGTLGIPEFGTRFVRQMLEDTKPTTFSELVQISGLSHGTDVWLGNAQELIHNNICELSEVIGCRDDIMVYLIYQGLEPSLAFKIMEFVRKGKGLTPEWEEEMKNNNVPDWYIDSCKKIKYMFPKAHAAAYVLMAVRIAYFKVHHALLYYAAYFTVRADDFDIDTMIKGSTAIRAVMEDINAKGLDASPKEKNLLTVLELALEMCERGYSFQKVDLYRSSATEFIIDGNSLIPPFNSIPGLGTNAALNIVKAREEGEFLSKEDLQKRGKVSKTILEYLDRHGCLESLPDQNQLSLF
Method: Recombinant, purified pol IIIC and pol IIIE from Bacillus subtilis were obtained using known methods (Hammond et al., Gene 98: 29-36 (1991), regarding pol IIIC; Barnes et al., J. Bacteriol. 184, 3834-3838 (2002), regarding pol IIIE). Recombinant, purified pol IIIE from Escherichia coli was obtained from a commercial source (Enzyco, Denver, Colo.). The enzyme assays were performed in 96-well plate format using the same assay mix for all three enzymes. […] Dilutions of compounds were added to the plate in 1% DMSO (1 μL/well). Assays were initiated by the addition of 0.025 to 0.06 units of enzyme (1 unit is the amount required to incorporate 250 pmoles of [^3H] dTMP in a standard assay), incubated for 10 min at 30° C. and terminated by the addition of 200 μL of cold 10% trichloroacetic acid, 10 mM sodium pyrophosphate. Precipitated labeled DNA was collected on glass fiber filter plates that had been pre-wet with ice cold 1 M HCl, 100 mM sodium pyrophosphate. The plates were washed with the HCl solution followed by ice cold 90% ethanol and then dried and counted in a liquid scintillation counter. […] In addition, percent inhibition values are calculated as the percent reduction in the activity of a DMSO (diluent) control.

S. aureus Smith strain = test: Inhibition of bacterial growth (MIC), Sm; format: cell-based, Staphylococcus aureus; conditions: 16 to 18 hours, 37° C.; for MIC: Staphylococcus aureus, read-out: Minimum Inhibitory Concentration for Bacterial Growth, Sm
Method: (§1) Each compound was assayed against a panel of a strain of Bacillus subtilis, of strains of antibiotic-resistant and sensitive Enterococcus and Staphylococcus species, and of a strain of the Gram-negative bacterium Escherichia coli. Compounds were dissolved in DMSO at 100× the desired highest concentration and added to one well of a 96-well microassay plate. Two-fold serial drug dilutions were made across the plate in DMSO to yield 11 concentrations (usually 80-0.078 μg/mL) plus an untreated control. Drugs were then transferred to fresh plates using 1.5 μL per well. Log phase cultures were diluted to yield a concentration of 1×10^5 colony forming units/mL in either LB or BHI medium and transferred to the plates containing drug for a final volume of 150 μL. Each well, including the DMSO controls, contained a final concentration of 1% DMSO. Plates were incubated with shaking at 37° C. for 16 to 18 hours. Cell growth was determined by measuring optical density (570 nm, 1 cm path length) in a microplate reader. MIC (minimum inhibitory concentration) is equivalent to the lowest concentration at which growth is not observed. The bacterial strains and MIC determinations have been well characterized and are described elsewhere (Tarantino et al., Antimicrob. Agents Chemother., 43: 1982-1987 (1999); Daly et al., Antimicrob. Agents Chemother., 44: 2217-2221 (2000)).

[1] = test system: Escherichia coli strain J53; test: Inhibition of bacterial growth (MIC), Ec; format: cell-based; conditions: 16 to 18 hours, 37° C.; for MIC: read-out: Minimum Inhibitory Concentration for Bacterial Growth, Ec
Method: as §1

E. coli pol IIIE = biological target: T2, E. coli pol IIIE (Escherichia coli, UniProt P10443); test: DNA polymerase assay, E. coli pol IIIE; format: biochemical; conditions: 80 μg/mL (190-260 μM) final concentration, all four dNTPs; for inhibition at 80 µg/mL: read-out: Percent Enzymatic Inhibition E. coli pol IIIE
T2 construct: purchased Enzyco, Denver, Colo
T2 sequence (P10443 whole entry): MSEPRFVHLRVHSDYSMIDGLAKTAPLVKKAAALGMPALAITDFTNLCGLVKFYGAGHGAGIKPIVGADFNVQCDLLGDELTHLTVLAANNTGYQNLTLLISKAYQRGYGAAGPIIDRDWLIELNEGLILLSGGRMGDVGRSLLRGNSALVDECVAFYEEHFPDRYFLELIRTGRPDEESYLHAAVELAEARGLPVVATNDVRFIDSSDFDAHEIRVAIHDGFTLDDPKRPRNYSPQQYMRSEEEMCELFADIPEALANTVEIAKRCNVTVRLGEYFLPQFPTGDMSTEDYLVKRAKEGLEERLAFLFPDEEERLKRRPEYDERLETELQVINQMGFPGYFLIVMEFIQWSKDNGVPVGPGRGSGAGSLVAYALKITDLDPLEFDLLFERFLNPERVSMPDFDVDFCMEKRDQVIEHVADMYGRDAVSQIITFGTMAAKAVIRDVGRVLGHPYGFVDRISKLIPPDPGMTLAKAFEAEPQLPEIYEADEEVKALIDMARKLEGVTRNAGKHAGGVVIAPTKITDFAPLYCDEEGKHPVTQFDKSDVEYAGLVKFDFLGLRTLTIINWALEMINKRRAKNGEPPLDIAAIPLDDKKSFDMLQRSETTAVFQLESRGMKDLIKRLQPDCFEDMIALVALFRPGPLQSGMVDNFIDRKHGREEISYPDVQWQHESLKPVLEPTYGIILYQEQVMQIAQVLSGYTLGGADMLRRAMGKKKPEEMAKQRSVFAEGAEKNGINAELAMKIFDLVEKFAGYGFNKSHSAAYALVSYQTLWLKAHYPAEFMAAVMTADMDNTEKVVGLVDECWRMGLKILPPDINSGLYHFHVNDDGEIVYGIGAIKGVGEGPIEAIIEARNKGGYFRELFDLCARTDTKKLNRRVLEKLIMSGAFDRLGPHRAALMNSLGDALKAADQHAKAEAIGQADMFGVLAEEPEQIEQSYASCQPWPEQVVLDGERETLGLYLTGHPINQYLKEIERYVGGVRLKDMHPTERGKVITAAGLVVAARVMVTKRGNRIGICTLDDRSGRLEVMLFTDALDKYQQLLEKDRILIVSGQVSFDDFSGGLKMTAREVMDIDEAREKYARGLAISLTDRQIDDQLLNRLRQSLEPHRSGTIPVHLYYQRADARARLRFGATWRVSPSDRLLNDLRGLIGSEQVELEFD
Method: (§2) Recombinant, purified pol IIIC and pol IIIE from Bacillus subtilis were obtained using known methods (Hammond et al., Gene 98: 29-36 (1991), regarding pol IIIC; Barnes et al., J. Bacteriol. 184, 3834-3838 (2002), regarding pol IIIE). Recombinant, purified pol IIIE from Escherichia coli was obtained from a commercial source (Enzyco, Denver, Colo.). The enzyme assays were performed in 96-well plate format using the same assay mix for all three enzymes. Each 25 μL assay contained 30 mM Tris, pH 7.5, 10 mM magnesium acetate, 4 mM dithiothreitol, 20% glycerol, with 10 μM dATP, dCTP, dGTP and dTTP (3H-labelled at 1.44 Ci/mmole) and 0.4 mg/mL activated calf thymus DNA as substrates. Dilutions of compounds were added to the plate in 1% DMSO (1 μL/well). Assays were initiated by the addition of 0.025 to 0.06 units of enzyme (1 unit is the amount required to incorporate 250 pmoles of [^3H] dTMP in a standard assay), incubated for 10 min at 30° C. and terminated by the addition of 200 μL of cold 10% trichloroacetic acid, 10 mM sodium pyrophosphate. Precipitated labeled DNA was collected on glass fiber filter plates that had been pre-wet with ice cold 1 M HCl, 100 mM sodium pyrophosphate. The plates were washed with the HCl solution followed by ice cold 90% ethanol and then dried and counted in a liquid scintillation counter. The calculated IC50 is the concentration needed to inhibit 50% of the DNA polymerase activity in the presence of all four dNTP substrates. In addition, percent inhibition values are calculated as the percent reduction in the activity of a DMSO (diluent) control.

B. subtilis pol IIIE [2] = biological target: T3, B. subtilis pol IIIE (Bacillus subtilis, UniProt O34623); test: DNA polymerase assay, B. subtilis pol IIIE; format: biochemical
T3 construct: made in house
T3 sequence (O34623 whole entry): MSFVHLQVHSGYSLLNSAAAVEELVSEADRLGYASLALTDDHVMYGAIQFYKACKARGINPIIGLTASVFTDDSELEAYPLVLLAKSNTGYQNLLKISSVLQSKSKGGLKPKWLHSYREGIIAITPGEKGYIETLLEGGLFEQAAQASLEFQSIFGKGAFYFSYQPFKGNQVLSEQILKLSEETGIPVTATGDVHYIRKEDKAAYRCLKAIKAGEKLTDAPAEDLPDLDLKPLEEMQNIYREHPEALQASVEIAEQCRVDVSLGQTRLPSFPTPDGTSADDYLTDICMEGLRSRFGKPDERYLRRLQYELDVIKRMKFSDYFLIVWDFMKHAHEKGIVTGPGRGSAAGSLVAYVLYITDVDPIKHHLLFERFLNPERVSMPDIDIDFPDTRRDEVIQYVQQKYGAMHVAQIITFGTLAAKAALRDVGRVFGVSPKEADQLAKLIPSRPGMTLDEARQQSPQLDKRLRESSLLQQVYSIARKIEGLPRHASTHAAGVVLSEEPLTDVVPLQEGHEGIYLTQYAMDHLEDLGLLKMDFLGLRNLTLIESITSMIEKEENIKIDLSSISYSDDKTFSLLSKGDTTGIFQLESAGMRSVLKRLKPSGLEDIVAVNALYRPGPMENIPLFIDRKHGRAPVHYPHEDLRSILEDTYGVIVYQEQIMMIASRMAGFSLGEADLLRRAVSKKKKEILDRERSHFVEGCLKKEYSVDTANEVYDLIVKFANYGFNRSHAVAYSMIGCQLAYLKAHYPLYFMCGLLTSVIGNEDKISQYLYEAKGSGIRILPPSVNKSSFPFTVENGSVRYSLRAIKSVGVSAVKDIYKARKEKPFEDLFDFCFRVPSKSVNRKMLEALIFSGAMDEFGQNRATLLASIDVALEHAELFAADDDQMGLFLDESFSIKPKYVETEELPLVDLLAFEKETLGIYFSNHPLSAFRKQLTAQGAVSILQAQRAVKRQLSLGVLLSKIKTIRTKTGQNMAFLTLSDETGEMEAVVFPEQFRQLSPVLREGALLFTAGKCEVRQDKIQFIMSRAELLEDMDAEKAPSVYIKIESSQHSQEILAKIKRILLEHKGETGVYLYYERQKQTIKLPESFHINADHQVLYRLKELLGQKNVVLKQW

[3] = test system: Staphylococcus aureus strain IP 8; test: Inhibition of bacterial growth (MIC), Sa; format: cell-based; conditions: 37° C.; for MIC: IP8, 16 to 18 hours, read-out: Minimum Inhibitory Concentration for Bacterial Growth, Sa
Method: as §1

[4] = test system: methicillin-resistant S. aureus strain 1094; test: Inhibition of bacterial growth (MIC), MRSA; format: cell-based, Staphylococcus aureus; conditions: 16 to 18 hours, 37° C.; for MIC: Staphylococcus aureus, MRSA, read-out: Minimum Inhibitory Concentration for Bacterial Growth, MRSA
Method: as §1

[5] = test system: Bacillus subtilis strain BD54; test: Inhibition of bacterial growth (MIC), Bs; format: cell-based; conditions: 16 to 18 hours, 37° C.; for MIC: read-out: Minimum Inhibitory Concentration for Bacterial Growth, Bs
Method: as §1

[6] = test system: vancomycin-resistant Enterococcus strain B42762; test: Inhibition of bacterial growth (MIC), VRE; format: cell-based; conditions: 16 to 18 hours, 37° C.; for MIC: VRE, read-out: Minimum Inhibitory Concentration for Bacterial Growth, VRE
Method: as §1

[7] = test system: E. faecium clinical isolate; test: Inhibition of bacterial growth (MIC), Efcm; format: cell-based; conditions: 16 to 18 hours, 37° C.; for MIC: Enterococcus faecium, read-out: Minimum Inhibitory Concentration for Bacterial Growth, Efcm
Method: as §1

[8] = test system: Enterococcus faecalis strain 29212; test: Inhibition of bacterial growth (MIC), Efcl; format: cell-based; conditions: 16 to 18 hours, 37° C.; for MIC: read-out: Minimum Inhibitory Concentration for Bacterial Growth, Efcl
Method: as §1

B. subtilis pol IIIE [9] = biological target: T3, B. subtilis pol IIIE; test: DNA polymerase assay, B. subtilis pol IIIE; format: biochemical; conditions: for inhibition at 80 µg/mL: read-out: Percent Enzymatic Inhibition B. subtilis pol IIIE; for IC50: B. subtilis Pol IIIE IC50, 4 dNTPs; for IC50 / B. subtilis Pol IIIE IC50, 4 dNTPs: in the presence of all four dNTP substrates
Method: as §2

[10] = B. subtilis Pol IIIC IC50, −dATP, in the absence of dATP
[11] = B. subtilis Pol IIIC IC50, −dCTP, in the absence of dCTP
[12] = B. subtilis Pol IIIC IC50, −dGTP, in the absence of dGTP
[13] = in the presence of all four dNTP substrates
[14] = B. subtilis Pol IIIE IC50, −dATP, in the absence of dATP
[15] = B. subtilis Pol IIIE IC50, −dCTP, in the absence of dCTP
[16] = B. subtilis Pol IIIE IC50, −dGTP, in the absence of dGTP
[17] = 80 μg/mL (190-260 μM) final concentration, all four dNTPs

SMILES	IC50 (B. subtilis pol IIIC; [10]) [µM]	IC50 (B. subtilis pol IIIC; [11]) [µM]	IC50 (B. subtilis pol IIIC; [12]) [µM]	B. subtilis Pol IIIC IC50, 4 dNTPs (B. subtilis pol IIIC; [13])	MIC (S. aureus Smith strain) [µg/mL]	MIC [1] [µg/mL]	IC50 (B. subtilis pol IIIE [2]; [14]) [µM]	IC50 (B. subtilis pol IIIE [2]; [15]) [µM]	IC50 (B. subtilis pol IIIE [2]; [16]) [µM]	MIC [3] [µg/mL]	MIC [4] [µg/mL]	MIC [5] [µg/mL]	MIC [6] [µg/mL]	MIC [7] [µg/mL]	MIC [8] [µg/mL]	inhibition at 80 µg/mL (B. subtilis pol IIIE [9]; [17]) [%]	IC50 (B. subtilis pol IIIE [9]) [µM]	inhibition at 80 µg/mL (B. subtilis pol IIIC) [%]	Percent Enzymatic Inhibition E. coli pol IIIE (E. coli pol IIIE)	further results
COc1cccc(-c2cc(C(=O)NN=Cc3ccc(OC)c(OC)c3)[nH]n2)c1 [Compound 2]	99	287	406	Inactive	20 (≈ 52.6 µM)	> 80	57	104	78	10 (≈ 26.3 µM)	20 (≈ 52.6 µM)	20 (≈ 52.6 µM)	40 (≈ 105 µM)	60 (≈ 158 µM)	40 (≈ 105 µM)	> 20	604			Percent Enzymatic Inhibition B. subtilis pol IIIC (B. subtilis pol IIIC): Inactive; inhibition at 80 µg/mL (E. coli pol IIIE): 1.7%
CCOc1cc(C=NNC(=O)c2cc(-c3cccc(OC)c3)n[nH]2)ccc1O [Compound 3]	141	563	301	Inactive	40 (≈ 105 µM)	> 80	124	222	311	20 (≈ 52.6 µM)	40 (≈ 105 µM)	> 80	40 (≈ 105 µM)	80 (≈ 210 µM)	80 (≈ 210 µM)	> 20		5.3	Inactive	B. subtilis Pol IIIE IC50, 4 dNTPs (B. subtilis pol IIIE [9]): Inactive
O=C(NN=Cc1ccc(O)cc1O)c1cc(-c2ccccc2)n[nH]1 [Compound 4]	81	228	98	Inactive	60 (≈ 186 µM)	> 80	278	347	183	30 (≈ 93.1 µM)	40 (≈ 124 µM)	40 (≈ 124 µM)	> 80	30 (≈ 93.1 µM)	> 80	> 20	699	15.8	Inactive	
COc1cc(C=NNC(=O)c2cc(-c3ccccc3)n[nH]2)ccc1O [Compound 5]	41	265	89	Inactive	40 (≈ 119 µM)	> 80	213	383	111	20 (≈ 59.5 µM)	40 (≈ 119 µM)	60 (≈ 178 µM)	40 (≈ 119 µM)	80 (≈ 238 µM)	40 (≈ 119 µM)	> 20	205	4.8		inhibition at 80 µg/mL (E. coli pol IIIE): 2%
COc1ccc(C=NNC(=O)c2cc(-c3ccc(Cl)cc3)n[nH]2)cc1OC [Compound 15]																			Inactive	Percent Enzymatic Inhibition B. subtilis pol IIIC (B. subtilis pol IIIC): Inactive; Minimum Inhibitory Concentration for Bacterial Growth, Sm (S. aureus Smith strain): >80 µg/mL; Minimum Inhibitory Concentration for Bacterial Growth, Ec [1]: >80 µg/mL; Minimum Inhibitory Concentration for Bacterial Growth, Sa ([3]; 16 to 18 hours): 8 µg/mL; Minimum Inhibitory Concentration for Bacterial Growth, MRSA [4]: >80 µg/mL; Minimum Inhibitory Concentration for Bacterial Growth, Bs [5]: >80 µg/mL; Minimum Inhibitory Concentration for Bacterial Growth, VRE [6]: >80 µg/mL; Minimum Inhibitory Concentration for Bacterial Growth, Efcm [7]: 40 µg/mL; Minimum Inhibitory Concentration for Bacterial Growth, Efcl [8]: >80 µg/mL; Percent Enzymatic Inhibition B. subtilis pol IIIE (B. subtilis pol IIIE [9]; [17]): 13.7%
COc1ccc(-c2cc(C(=O)NN=Cc3ccc(O)cc3)[nH]n2)cc1 [Compound 16]	89	96	60	Inactive	> 80	> 80	117	156	318	> 80	> 80	> 80	80 (≈ 238 µM)	> 80	> 80	> 20		9.9	Inactive	B. subtilis Pol IIIE IC50, 4 dNTPs (B. subtilis pol IIIE [9]): Inactive
CCOc1ccc(-c2cc(C(=O)NN=Cc3ccc(O)c(OC)c3)[nH]n2)cc1 [Compound 19]	9	3.3	5.1		> 80	> 80	> 841	> 841	> 841	80 (≈ 210 µM)	5 (≈ 13.1 µM)	2.5 (≈ 6.57 µM)	10 (≈ 26.3 µM)	> 80	> 80	10.1	> 841	> 20	Inactive	IC50 (B. subtilis pol IIIC; B. subtilis Pol IIIC IC50, 4 dNTPs, in the presence of all four dNTP substrates): 23 µM

Reference: US20060258729A1, “Antibacterial pyrazole carboxylic acid hydrazides” (priority 2002, published 2006)
